# Columns and labels:
# MMP-1 = molecular target: T1, MMP-1 (Homo sapiens, UniProt P03956); experiment: Fluorogenic substrate enzyme inhibition assay, MMP-1; type: biochemical; conditions: 25°C, HEPES pH 7.5, 5 μM TCEP, fluorogenic substrate 1 μM
# T1 construct: gift of Dr. L. Jack Windsor (Indiana University, Indianapolis, IN)
# T1 sequence (P03956 100-469): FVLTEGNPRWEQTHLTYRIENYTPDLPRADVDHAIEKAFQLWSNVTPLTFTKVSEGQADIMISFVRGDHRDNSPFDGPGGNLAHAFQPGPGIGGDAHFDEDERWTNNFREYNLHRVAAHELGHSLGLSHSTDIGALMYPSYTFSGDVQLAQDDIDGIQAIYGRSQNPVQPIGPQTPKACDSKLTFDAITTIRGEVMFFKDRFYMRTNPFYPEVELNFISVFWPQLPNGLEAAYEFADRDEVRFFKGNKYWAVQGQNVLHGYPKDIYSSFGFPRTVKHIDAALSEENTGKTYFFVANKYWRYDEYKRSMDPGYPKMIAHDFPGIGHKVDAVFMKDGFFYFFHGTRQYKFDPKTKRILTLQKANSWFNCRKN
# Protocol: (§1) Enzymatic assays to characterize inhibitor potency were performed as previously described. Assays were performed at 25°C in 50 mM 4-(2-hydroxyethyl)-1-piperazineethanesulfonic acid (HEPES) buffer at pH 7.5 with 10 mM CaCl2, 200 mM NaCl, 0.01% (w/v) Brij-35, and 5 μM tris(2-carboxyethyl)[…] (TCEP). […] Briefly, 10 μL of inhibitor solution or control (100% DMSO), 176 μL of assay buffer, and 10 μL of enzyme solution were mixed and incubated for 30 min prior to initiation of the assay, which was accomplished by adding 4 μL of substrate solution, 5% final concentration DMSO. […] Inhibitor potency was determined via comparison of relative rates (vi/vo).
# MMP-2 [1] = molecular target: T2, MMP-2 (Homo sapiens, UniProt P08253); experiment: Fluorogenic substrate enzyme inhibition assay, MMP-2; type: biochemical; conditions: 25°C, HEPES pH 7.5, 5 μM TCEP, fluorogenic substrate 1 μM
# T2 construct: gift of Dr. L. Jack Windsor (Indiana University, Indianapolis, IN)
# T2 sequence (P08253 110-660): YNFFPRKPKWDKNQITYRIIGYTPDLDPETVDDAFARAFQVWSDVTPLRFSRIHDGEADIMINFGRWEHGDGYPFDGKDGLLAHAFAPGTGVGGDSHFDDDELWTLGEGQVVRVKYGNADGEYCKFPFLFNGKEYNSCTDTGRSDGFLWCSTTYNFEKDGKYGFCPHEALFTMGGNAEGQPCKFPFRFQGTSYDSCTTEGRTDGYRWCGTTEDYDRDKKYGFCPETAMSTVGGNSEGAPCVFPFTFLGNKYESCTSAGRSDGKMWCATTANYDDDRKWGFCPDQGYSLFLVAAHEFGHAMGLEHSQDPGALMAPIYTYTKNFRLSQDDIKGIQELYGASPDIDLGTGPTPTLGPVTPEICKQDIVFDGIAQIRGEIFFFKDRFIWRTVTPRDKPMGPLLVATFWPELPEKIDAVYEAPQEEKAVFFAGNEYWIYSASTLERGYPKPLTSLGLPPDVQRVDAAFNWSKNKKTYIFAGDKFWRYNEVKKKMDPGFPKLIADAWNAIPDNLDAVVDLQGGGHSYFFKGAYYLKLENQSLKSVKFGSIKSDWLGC
# Protocol: as §1
# MMP-7 = molecular target: T3, MMP-7 (Homo sapiens, UniProt P09237); experiment: Fluorogenic substrate enzyme inhibition assay, MMP-7; type: biochemical; conditions: 25°C, HEPES pH 7.5, 5 μM TCEP, fluorogenic substrate 1 μM
# T3 construct: gift of Dr. Harold E. Van Wart (Syntex, Palo Alto, CA)
# T3 sequence (P09237 95-267): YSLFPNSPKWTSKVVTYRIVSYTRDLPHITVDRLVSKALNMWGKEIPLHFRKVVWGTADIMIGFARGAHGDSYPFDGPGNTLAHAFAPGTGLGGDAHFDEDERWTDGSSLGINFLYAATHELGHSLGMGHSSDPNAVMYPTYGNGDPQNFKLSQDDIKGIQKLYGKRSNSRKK
# Protocol: (§2) Enzymatic assays to characterize inhibitor potency were performed as previously described. Assays were performed at 25°C in 50 mM 4-(2-hydroxyethyl)-1-piperazineethanesulfonic acid (HEPES) buffer at pH 7.5 with 10 mM CaCl2, 200 mM NaCl, 0.01% (w/v) Brij-35, and 5 μM tris(2-carboxyethyl)[…] (TCEP). The fluorogenic substrate Mca-PLGLDpa-AR-NH2 (M-1895, Bachem, Torrance, CA) was used at a concentration of 1 μM as the substrate to measure inhibition constants. Briefly, 10 μL of inhibitor solution or control (100% DMSO), 176 μL of assay buffer, and 10 μL of enzyme solution were mixed and incubated for 30 min prior to initiation of the assay, which was accomplished by adding 4 μL of substrate solution, 5% final concentration DMSO. The release of product was monitored by fluorescence (λex = 328 nm, λem = 393 nm) with a PerkinElmer luminescence spectrophotometer LS50B (FL WinLab v3.0) connected to a temperature-controlled water bath. Inhibitor potency was determined via comparison of relative rates (vi/vo).
# MMP-9 = molecular target: T4, MMP-9 (Homo sapiens, UniProt P14780); experiment: Fluorogenic substrate enzyme inhibition assay, MMP-9; type: biochemical; conditions: 25°C, HEPES pH 7.5, 5 μM TCEP, fluorogenic substrate 1 μM
# T4 construct: human neutrophil gelatinase B was purified from human blood; from tissue; host or cells: human blood (neutrophils)
# Protocol: as §1
# MMP-14 [2] = molecular target: T5, MMP-14 (Homo sapiens, UniProt P50281); experiment: Fluorogenic substrate enzyme inhibition assay, MMP-14; type: biochemical; conditions: 25°C, HEPES pH 7.5, 5 μM TCEP, fluorogenic substrate 1 μM
# T5 construct: gift of Dr. Harald Tscheche (Bielefeld University, Bielefeld, Germany)
# Protocol: as §2
# hMSCs [3] = experiment: Cytotoxicity assay (Trypan Blue, cell count); type: cell-based, human; conditions: 0–100 μM, 24 h
# Protocol: Mercaptosulfonamide MMPIs were dissolved in 100% DMSO to generate 8 mM stock solutions and subsequently diluted with αMEM, while maintaining the final DMSO concentration at 1.25% (v/v). Media supplemented with a panel of final inhibitor concentrations ranging from 0–100 μM were then added to 70–80% confluent hMSC cultures and incubated for 24 h. At the end of treatment, inhibitor-conditioned media was removed and cells were washed with phosphate buffered saline (PBS) (pH 7.4) prior to being trypsinized (0.25% Trypsin, GE Healthcare), pelleted, and resuspended in 1 mL of fresh αMEM. Aliquots of the cell suspension for each condition were diluted 1:1 with 0.4% (w/v) Trypan Blue and counted with a hemocytometer. Relative cytotoxicity was determined by normalizing cell number for each condition against its respective control. A concentration was arbitrarily deemed cytotoxic if it produced a statistically significant reduction in cell number when compared to DMSO controls.
# hMSCs [4] = experiment: Adipogenic differentiation, lipid accumulation, co-treatment with T0070907; type: cell-based, human; conditions: 10 μM compound with 10 μM T0070907
# Protocol: (§3) Human MSCs were seeded into 6-well plates at 1,000 cells/cm^2. Upon reaching 70–80% confluence hMSCs were induced towards an adipogenic lineage by adding dexamethasone (0.5 μM), 3-isobutyl-1-methylxanthine ([…]), and indomethacin (50 μM) to the culture medium. Tested compounds were dissolved in DMSO and added to treatment wells during differentiation to a final total concentration of 10 μM with DMSO concentrations remaining constant (0.125% or 0.25% v/v) between conditions. Wells treated with appropriate concentrations of DMSO alone served as controls. Media and treatments were refreshed every 72 h for 21 days.
# (§4) After 21 days of differentiation, hMSCs were washed with PBS and fixed with neutral buffered formalin for 1 h. Cells were then stained with 0.3% (w/v) Oil Red-O in 3:2 100% isopropyl alcohol to PBS for 20 min, washed with PBS, stained with 5 μg/mL Hoechst 33342 for 5 min, then washed again. Cultures were later imaged with an epifluorescence capable Nikon TE2000-E2 Eclipse microscope. Relative staining was determined with ImageJ (version 1.46c, National Institutes of Health, Bethesda, MD) by standardizing the area stained in each image to nuclei number prior to normalizing against DMSO treated controls.
# hMSCs [5] = experiment: Relative cell number via nuclei counts in differentiating hMSCs; type: cell-based, human
# Protocol: as §4
# Fig 5 Co-treatment of differentiating hMSCs with T0070907 and MMPIs. […] DMSO vehicle was maintained consistent between treatments and used as control. (B) Relative cell number was determined via nuclei counts. […] Scale bar 150 μm. ** P < 0.05, ++ P < 0.05, ## P < 0.05 compared to T0070907.
# PPARγ [6] = experiment: qPCR of PPARγ gene expression in hMSCs undergoing adipogenesis; type: cell-based, human; conditions: 10 μM, 21 days, harvested every 72 h, vs DMSO controls
# Protocol: (§5) MMPI treated and untreated hMSCs were collected every 72 h over 21 days of differentiation. Total RNA from each time point was isolated using the E.Z.N.A. Total RNA Kit I (Omega Bio-Tek, Norcross, GA) and purified with the DNA-free RNA Kit (Zymo Research, Irvine, CA). RNA was resuspended in nuclease-free water, with concentrations determined via a Nanodrop UV-Vis Spectrophotometer (ThermoFisher Scientific, Waltham, MA). 500 ng of RNA was used for cDNA synthesis using qScript cDNA SuperMix (Quanta Bioscience, Gaitherburg, MD). 100 ng/μL cDNA was used as template for quantitative PCR on a 7500 Fast Real Time PCR system (Life Technologies, Carlsbad, CA) using PerfeCTa SYBR® Green SuperMix, Low Rox (Quanta Bioscience). Relative gene expression was determined via the 2^^(-ΔΔCt) method. Expression levels of PPARγ (peroxisome-proliferator activated receptor gamma) were determined. β-Actin was used as an endogenous control. Primers were designed with Primer-BLAST (NCBI) and purchased from Integrated DNA Technologies (IDT, Coralville, IA). MMP-2: forward: 5’-[…]-3’ reverse: 5’-[…]-3’; MMP-14: forward: 5’-[…]-3’ Reverse: 5’-[…]-3’; PPARγ: forward: 5’-[…]-3’ reverse: 5’-[…]-3’; β-Actin: forward: 5’-[…]-3’ reverse: 5’-[…]-3’.
# MMP-2 [7] = experiment: qPCR of MMP-2 gene expression in hMSCs undergoing adipogenesis; type: cell-based, human; conditions: 10 μM
# Protocol: as §5
# MMP-14 [8] = experiment: qPCR of MMP-14 gene expression in hMSCs undergoing adipogenesis; type: cell-based, human; conditions: 10 μM
# Protocol: as §5
# [9] = design: method as in PMID 23631440; conditions: standard enzyme inhibition assay conditions; cited from earlier work
# hMSCs [10] = experiment: Adipogenic differentiation, lipid accumulation by Oil Red-O staining; type: cell-based, human; conditions: 10 μM, 21 days differentiation, vs DMSO control
# Protocol: as §3, §4
# PPARγ [11] = system: PPARγ; design: method as in PMID 11877444; conditions: read-out: apparent IC50; cited from earlier work
# [12] = design: method as in PMID 19752200; conditions: up to 50 μM; cited from earlier work
# [13] = system: MDA-MB-231 breast cancer cells; design: method as in PMID 21498701; conditions: treatments up to 20 μM, without induction of apoptosis; cited from earlier work
# [14] = system: MCF-7 breast cancer cells; design: method as in PMID 21498701; conditions: treatments up to 20 μM, without induction of apoptosis; cited from earlier work
# [15] = Day 21, compared to the negative control
# T4 sequence (P14780 94-707): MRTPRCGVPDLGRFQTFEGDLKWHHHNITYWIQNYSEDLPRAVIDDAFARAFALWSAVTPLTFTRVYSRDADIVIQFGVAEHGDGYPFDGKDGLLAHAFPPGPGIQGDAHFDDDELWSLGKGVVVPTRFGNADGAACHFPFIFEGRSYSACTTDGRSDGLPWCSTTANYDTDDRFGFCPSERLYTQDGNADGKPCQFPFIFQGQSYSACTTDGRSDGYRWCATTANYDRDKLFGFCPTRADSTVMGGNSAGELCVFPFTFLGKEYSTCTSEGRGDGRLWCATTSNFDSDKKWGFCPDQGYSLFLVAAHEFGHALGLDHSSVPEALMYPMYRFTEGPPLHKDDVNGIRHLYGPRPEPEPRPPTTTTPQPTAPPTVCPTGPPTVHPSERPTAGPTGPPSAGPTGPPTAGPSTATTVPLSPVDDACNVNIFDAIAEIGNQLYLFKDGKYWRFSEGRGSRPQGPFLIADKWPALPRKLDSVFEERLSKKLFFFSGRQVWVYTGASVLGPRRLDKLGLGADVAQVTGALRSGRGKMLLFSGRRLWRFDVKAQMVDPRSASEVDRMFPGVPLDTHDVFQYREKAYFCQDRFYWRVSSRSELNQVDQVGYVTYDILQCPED
smiles,measurement,setting,value
NCCCCCC(=O)N1C[C@H](NS(=O)(=O)c2ccc(Oc3ccccc3)cc2)[C@@H](S)C1 (relative stereo) [YHJ-7-52],IC50,MMP-1,1.2 ± 0.37 µM
same,IC50,MMP-2 [1],0.0055 ± 0.0042 µM
same,IC50,MMP-7,2.4 ± 0.72 µM
same,IC50,MMP-9,0.087 ± 0.009 µM
same,IC50,MMP-14 [2],0.0043 ± 0.0007 µM
same,Concentration producing a significant reduction in cell number,hMSCs [3],100 µM
same,Further reduction of lipid accumulation on co-treatment with T0070907,hMSCs [4],~ 20%
same,Further reduction of cell number on co-treatment with T0070907,hMSCs [5]; 10 μM compound with 10 μM T0070907,did not result in further cell number reductions
same,PPARγ expression,PPARγ [6],significantly suppressed PPARγ expression after day 9
same,MMP-2 gene expression level on Day 21,MMP-2 [7]; [15],significantly higher
same,MMP-2 gene expression level,"MMP-2 [7]; over 21 days, vs DMSO control",does not affect
same,MMP-14 gene expression level on Day 21,MMP-14 [8]; [15],significantly higher
same,MMP-14 gene expression level,"MMP-14 [8]; over 21 days, vs DMSO control",does not affect
same,Stability,[9],lower stability than the hydroxamate MMPI GM6001
O=C(Nc1ccncc1)c1cc([N+](=O)[O-])ccc1Cl [T0070907],Reduction of lipid accumulation,hMSCs [10],20%
same,Reduction of relative cell number,"hMSCs [5]; 10 μM, nuclei counts",approximately 30%
same,Cytotoxicity,[12],minimally cytotoxic
NCCCCCC(=O)N1C[C@H](NS(=O)(=O)c2ccc(Oc3ccccc3)cc2)[C@@H](O)C1 (relative stereo) [YHJ-7-82],IC50,MMP-1,> 200 µM
same,IC50 MMP-1,MMP-1,almost undetectable inhibitory activity
same,IC50,MMP-2 [1],> 100 µM
same,IC50 MMP-2,MMP-2 [1],almost undetectable inhibitory activity
same,IC50,MMP-7,> 200 µM
same,IC50 MMP-7,MMP-7,almost undetectable inhibitory activity
same,IC50,MMP-9,> 200 µM
same,IC50 MMP-9,MMP-9,almost undetectable inhibitory activity
same,IC50,MMP-14 [2],> 200 µM
same,IC50 MMP-14,MMP-14 [2],almost undetectable inhibitory activity
same,Cytotoxicity,hMSCs [3],minimal cytotoxicity across all tested concentrations
same,Reduction of lipid accumulation,hMSCs [10],did not produce a significant response
same,Further reduction of lipid accumulation on co-treatment with T0070907,hMSCs [4],did not provide any additional reductions
Cc1c(C)c2c(c(C)c1O)CCC(C)(COc1ccc(CC3SC(=O)NC3=O)cc1)O2 (centres unmarked) [Troglitazone],Increase of lipid accumulation,hMSCs [10],approximately 80%
"CNC(=O)[C@H](Cc1c[nH]c2ccccc12)NC(=O)[C@@H](CC(=O)NO)CC(C)C [GM6001, reference compound]",IC50,MMP-7,0.002 ± 0.0019 µM
same,IC50,MMP-14 [2],0.0005 ± 0.0001 µM
same,Reduction of lipid accumulation,hMSCs [10],~20%
same,Further reduction of lipid accumulation on co-treatment with T0070907,hMSCs [4],~ 20%
